Holding throughout (format): cell-based
Assay [1] concerns the target T1, human muscle nicotinic acetylcholine receptor (nAChR), adult form, (α1)2β1δε (Homo sapiens, UniProt P02708+Q04844+Q07001, P02708:Y233H).
T1 construct: gene CHRNA1; full-length untagged subunits; CMV-alpha1 plasmid plus EF1alpha beta1-delta-epsilon triple plasmid, transient in HEK293; heteropentamer; with Acetylcholine receptor subunit beta
As to the kind of experiment: Fluo-4 Ca2+ flux, FLIPR. An excerpt: (§1) Fluo-4 Ca2+ flux, FLIPR on human muscle nicotinic acetylcholine receptor (nAChR), adult form, (α1)2β1δε
On the technique in general: Calcium assays in cells follow changes in intracellular calcium, usually with a dye or a luminescent sensor.

The target of assay [2] is T2, human muscle nicotinic acetylcholine receptor (nAChR), adult form, (α1)2β1δε (Homo sapiens, UniProt P02708+Q04844+Q07001, P02708:Y233N).
T2 construct: gene CHRNA1; full-length untagged subunits; CMV-alpha1 plasmid plus EF1alpha beta1-delta-epsilon triple plasmid, transient in HEK293; heteropentamer; with Acetylcholine receptor subunit beta
The experiment in a line: Fluo-4 Ca2+ flux, FLIPR.
Source text: as §1

Assay [3] concerns the target T3, human muscle nicotinic acetylcholine receptor (nAChR), adult form, (α1)2β1δε (Homo sapiens, UniProt P02708+Q04844+Q07001, P02708:V275M).
T3 construct: gene CHRNA1; full-length untagged subunits; CMV-alpha1 plasmid plus EF1alpha beta1-delta-epsilon triple plasmid, transient in HEK293; heteropentamer; with Acetylcholine receptor subunit beta
As to the kind of experiment: Fluo-4 Ca2+ flux, FLIPR.
Source text: as §1

Assay [4] concerns the target T4, human muscle nicotinic acetylcholine receptor (nAChR), adult form, (α1)2β1δε (Homo sapiens, UniProt P02708+Q04844+Q07001).
T4 construct: gene CHRNA1; full-length untagged subunits; CMV-alpha1 plasmid plus EF1alpha beta1-delta-epsilon triple plasmid, transient in HEK293; heteropentamer; with Acetylcholine receptor subunit beta
The experiment in a line: Fluo-4 Ca2+ flux, FLIPR. The conditions noted are these: read-out: α1-Wt / EC50.
Source text: as §1

Assay [5] has as its target T4, human muscle nicotinic acetylcholine receptor (nAChR), adult form, (α1)2β1δε. As to the kind of experiment: Fluo-4 Ca2+ flux, FLIPR, inhibition of epibatidine response.
Target sequence in this assay (P02708 21-457): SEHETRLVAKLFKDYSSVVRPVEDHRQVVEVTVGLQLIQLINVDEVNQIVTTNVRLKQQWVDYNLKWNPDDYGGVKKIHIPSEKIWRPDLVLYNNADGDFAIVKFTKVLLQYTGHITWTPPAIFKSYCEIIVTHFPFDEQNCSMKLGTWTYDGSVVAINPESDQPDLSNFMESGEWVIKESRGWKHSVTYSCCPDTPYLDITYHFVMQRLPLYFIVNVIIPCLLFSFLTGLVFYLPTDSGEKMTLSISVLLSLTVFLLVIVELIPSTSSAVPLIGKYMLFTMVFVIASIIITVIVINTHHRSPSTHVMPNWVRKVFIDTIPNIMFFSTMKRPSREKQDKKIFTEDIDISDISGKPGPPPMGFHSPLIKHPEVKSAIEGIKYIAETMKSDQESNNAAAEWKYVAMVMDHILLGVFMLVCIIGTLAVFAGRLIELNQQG
Target sequence in this assay (Q07001 22-517): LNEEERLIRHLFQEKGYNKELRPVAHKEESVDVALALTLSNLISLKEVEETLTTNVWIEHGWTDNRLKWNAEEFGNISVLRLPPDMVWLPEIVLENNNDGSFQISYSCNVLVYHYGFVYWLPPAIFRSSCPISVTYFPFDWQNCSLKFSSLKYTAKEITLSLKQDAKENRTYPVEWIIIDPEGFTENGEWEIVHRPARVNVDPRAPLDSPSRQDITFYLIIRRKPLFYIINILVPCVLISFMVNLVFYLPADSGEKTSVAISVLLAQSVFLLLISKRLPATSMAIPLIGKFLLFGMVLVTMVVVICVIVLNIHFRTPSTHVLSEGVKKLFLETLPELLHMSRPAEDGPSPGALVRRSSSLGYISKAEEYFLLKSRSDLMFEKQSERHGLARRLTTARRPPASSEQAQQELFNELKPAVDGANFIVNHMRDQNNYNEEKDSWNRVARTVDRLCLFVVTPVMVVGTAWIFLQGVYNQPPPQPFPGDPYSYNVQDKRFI
Target sequence in this assay (Q04844 21-493): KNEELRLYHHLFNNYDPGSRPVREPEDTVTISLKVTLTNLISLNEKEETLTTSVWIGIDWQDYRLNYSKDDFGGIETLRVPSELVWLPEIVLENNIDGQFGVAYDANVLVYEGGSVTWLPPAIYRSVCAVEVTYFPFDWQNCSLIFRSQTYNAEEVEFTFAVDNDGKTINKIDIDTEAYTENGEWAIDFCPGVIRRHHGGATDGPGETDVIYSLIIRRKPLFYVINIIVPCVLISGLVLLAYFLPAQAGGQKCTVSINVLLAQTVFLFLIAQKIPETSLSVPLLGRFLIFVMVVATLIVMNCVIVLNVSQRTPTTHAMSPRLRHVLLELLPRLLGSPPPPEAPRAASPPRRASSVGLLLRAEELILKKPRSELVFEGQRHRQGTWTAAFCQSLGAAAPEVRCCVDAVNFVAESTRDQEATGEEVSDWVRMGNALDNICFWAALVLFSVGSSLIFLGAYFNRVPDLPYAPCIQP
Target sequence in this assay (P11230 24-501 partner): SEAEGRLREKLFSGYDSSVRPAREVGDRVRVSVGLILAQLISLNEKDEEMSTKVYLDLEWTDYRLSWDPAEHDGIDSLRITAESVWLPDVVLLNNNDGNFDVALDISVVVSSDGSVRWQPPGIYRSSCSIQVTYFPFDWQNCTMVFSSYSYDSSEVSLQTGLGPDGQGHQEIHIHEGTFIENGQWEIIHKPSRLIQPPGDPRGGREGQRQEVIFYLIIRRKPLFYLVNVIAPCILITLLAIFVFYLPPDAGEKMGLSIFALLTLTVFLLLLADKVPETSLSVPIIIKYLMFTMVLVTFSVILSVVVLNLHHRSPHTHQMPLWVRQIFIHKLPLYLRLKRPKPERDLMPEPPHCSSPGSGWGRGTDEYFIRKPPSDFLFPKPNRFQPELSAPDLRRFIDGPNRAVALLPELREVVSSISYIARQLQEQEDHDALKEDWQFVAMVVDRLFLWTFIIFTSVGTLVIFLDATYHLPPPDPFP

SMILES strings stand for the structures.

As for `C[N+]1(C)CCN(c2ccccc2)CC1` [DMPP], the EC50 turned out to be 161 ± 10 nM in assay [1], 705 ± 22 nM in assay [2], 67 ± 15 nM in assay [3] and 1630 ± 203 nM in assay [4].
The term IC50 denotes the point on the concentration scale where inhibition reaches its midpoint. In assay [5], `COc1cc2c3cc1Oc1cc(ccc1O)C[C@@H]1c4c(cc(OC)c(O)c4Oc4ccc(cc4)C[C@@H]3N(C)CC2)CC[N+]1(C)C` [tubocurarine] registered an IC50 of 3200 ± 2400 nM.
In the case of `CN1CCC[C@H]1c1cccnc1` [Nicotine], the EC50 stood at 1390 ± 117 nM in assay [1], 1380 ± 96 nM in assay [2], 557 ± 226 nM in assay [3] and 3650 ± 1040 nM in assay [4].
On the same counts, the results for `O=c1cccc2n1C[C@@H]1CNC[C@H]2C1` [Cytisine] are 650 ± 93 nM, 1180 ± 76 nM, 592 ± 153 nM and 2350 ± 367 nM.

Values taken from article PMC5029940, “High Throughput Random Mutagenesis and Single Molecule Real Time Sequencing of the Muscle Nicotinic Acetylcholine Receptor” (PLoS ONE, 2016).
